Measured values reported in patent publication US20240158392A1 (Janssen Biotech, Inc., priority 2021, published 2024).

These compounds were tested against SIK2 (Homo sapiens, UniProt Q9H0K1) (assay: SIK2 Enzymatic Assay Version 1 (ADP Glo)). Details: enzyme 0.6 nM, 160 μM ATP and 140 μM HDAC5tide (each 2× final concentration); 30 minutes pre-incubation, 4 hours; ADPGlo luminescence; read-out: SIK2 ADP Glo IC50 (μM) (Test Example 1).
Assay type: biochemical
Protocol: All steps were performed at room temperature. Compounds were pre-plated onto an assay plate using an Echo acoustic dispenser (Labcyte, E550 or E555) at 20 nL per well. Enzyme prepared in Assay Buffer at 0.6 nM (2× final concentration) was added at 2 μL per well using the Multidrop Combi (Thermo Fisher—used for all additions in this assay) to the assay plate, spun for 1 min at 800-850 rpm (Allegra 6KR Beckman Coulter centrifuge), and incubated with compound for 30 minutes.
One column of wells was dedicated to a no-peptide negative control (containing only ATP). ADPGlo Reagent (prepared and aliquoted as per manufacturer instructions) was then added at 2 μL per well, spun and incubated for 40 min. ADPGlo Detection (prepared and aliquoted as per manufacturer instructions) was added at 2 μL per well to the assay plate, which was spun and incubated for at least 30 min. The plate was then read on the Pherastar (BMG Labtech) using a luminescence read. Gain was set by the 0.1 mM concentration of ADP wells in the ADP/ATP standard curve plate generated as per manufacturer instructions.

Chain of SIK2 (Q9H0K1 whole entry, species assumed): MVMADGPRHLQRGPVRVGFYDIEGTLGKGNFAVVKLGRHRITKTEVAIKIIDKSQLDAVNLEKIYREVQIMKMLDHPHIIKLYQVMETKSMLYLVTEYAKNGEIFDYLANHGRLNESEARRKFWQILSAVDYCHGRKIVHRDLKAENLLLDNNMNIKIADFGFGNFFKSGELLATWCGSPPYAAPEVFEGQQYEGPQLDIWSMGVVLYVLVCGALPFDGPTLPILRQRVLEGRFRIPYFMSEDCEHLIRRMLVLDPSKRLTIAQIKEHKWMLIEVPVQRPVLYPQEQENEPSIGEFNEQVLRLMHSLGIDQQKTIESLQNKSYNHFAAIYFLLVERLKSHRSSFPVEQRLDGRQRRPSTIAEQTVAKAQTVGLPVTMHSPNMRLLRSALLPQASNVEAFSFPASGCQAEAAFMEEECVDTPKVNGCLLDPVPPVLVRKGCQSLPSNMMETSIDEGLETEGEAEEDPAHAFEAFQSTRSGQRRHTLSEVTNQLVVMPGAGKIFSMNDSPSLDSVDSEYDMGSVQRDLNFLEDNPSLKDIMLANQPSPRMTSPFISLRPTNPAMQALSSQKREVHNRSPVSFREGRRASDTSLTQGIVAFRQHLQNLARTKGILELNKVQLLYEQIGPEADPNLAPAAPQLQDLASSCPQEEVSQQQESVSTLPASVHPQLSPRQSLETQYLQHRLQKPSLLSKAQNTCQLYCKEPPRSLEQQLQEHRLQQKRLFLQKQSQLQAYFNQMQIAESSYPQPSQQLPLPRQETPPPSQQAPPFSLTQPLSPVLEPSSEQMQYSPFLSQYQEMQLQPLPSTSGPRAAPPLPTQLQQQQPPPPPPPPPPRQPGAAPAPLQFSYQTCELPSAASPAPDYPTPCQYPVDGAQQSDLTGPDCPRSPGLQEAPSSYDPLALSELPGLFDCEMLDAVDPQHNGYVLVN

Row | Structure (SMILES) | IC50 [µM]
1 | N#Cc1cc(-c2ccn3nc(NC(=O)C4CC4)cc3c2)c(O[C@H]2CCN[C@@H](C(F)(F)F)C2)cn1 (single isomer, unassigned) [Example 14, N-(5-(2-cyano-5-(((2*R,4*S)-2-(trifluoromethyl)piperidin-4-yl)oxy)pyridin-4-yl)pyrazolo[1,5-a]pyridin-2-yl)cyclopropanecarboxamide] | 0.0249
2 | N#Cc1cc(-c2ccn3nc(NC(=O)C4CC4)cc3c2)c(O[C@H]2C[C@H]3C[C@@H]2CN3)cn1 (single isomer, unassigned) [Example 18, N-[5-[5-[[(1*R,4*R,5*S)-2-azabicyclo[2.2.1]heptan-5-yl]oxy]-2-cyano-4-pyridyl]pyrazolo[1,5-a]pyridin-2-yl]cyclopropanecarboxamide] | 0.00158
3 | N#Cc1cc(-c2ccn3nc(NC(=O)C4CC4)cc3c2)c(OC2(C(F)(F)F)CCNCC2)cn1 [Example 9, N-(5-(2-cyano-5-((4-(trifluoromethyl)piperidin-4-yl)oxy)pyridin-4-yl)pyrazolo[1,5-a]pyridin-2-yl)cyclopropanecarboxamide] | 0.152
4 | CN1CCOC[C@H](Oc2cnc(C#N)cc2-c2ccn3nc(NC(=O)C4CC4)cc3c2)C1 [Example 12, N-[5-[2-cyano-5-[[(6R)-4-methyl-1,4-oxazepan-6-yl]oxy]-4-pyridyl]pyrazolo[1,5-a]pyridin-2-yl]cyclopropanecarboxamide] | 0.0133
5 | N#Cc1cc(-c2ccn3nc(NC(=O)C4CC4)cc3c2)c(OC[C@@H]2CC[C@@H](N)C2)cn1 [Example 22, N-[5-[5-[[(1R,3R)-3-aminocyclopentyl]methoxy]-2-cyano-4-pyridyl]pyrazolo[1,5-a]pyridin-2-yl]cyclopropanecarboxamide] | 0.00121
6 | CN1CCOC[C@@H](Oc2cnc(C#N)cc2-c2ccn3nc(NC(=O)C4CC4)cc3c2)C1 [Example 26, N-[5-[2-cyano-5-[[(6S)-4-methyl-1,4-oxazepan-6-yl]oxy]-4-pyridyl]pyrazolo[1,5-a]pyridin-2-yl]cyclopropanecarboxamide] | 0.0123

The remaining compounds from weak to strong by IC50, led by results:

Row | IC50 [µM] | Structure (SMILES)
7 | 0.118 | N#Cc1cc(-c2ccn3nc(NC(=O)C4CC4)cc3c2)c(N2CCC(O)(C(F)(F)F)C2)cn1 (racemic) [Example 87, (rac-)-N-[5-[2-cyano-5-[3-hydroxy-3-(trifluoromethyl)pyrrolidin-1-yl]-4-pyridyl]pyrazolo[1,5-a]pyridin-2-yl]cyclopropanecarboxamide]
8 | 0.0691 | CN(C)CCNc1cnc(C#N)cc1-c1ccn2nc(NC(=O)C3CC3)cc2c1 [Example 2, N-[5-[2-cyano-5-(2-dimethylaminoethylamino)-4-pyridyl]pyrazolo[1,5-a]pyridin-2-yl]cyclopropanecarboxamide]
9 | 0.0354 | CC(C)(C)OC(=O)N1CCC(COc2cnc(C#N)cc2-c2ccn3nc(NC(=O)C4CC4)cc3c2)C1 (stereo in doubt) [Example 35, tert-butyl (3R)-3-[[6-cyano-4-[2-(cyclopropanecarbonylamino)pyrazolo[1,5-a]pyridin-5-yl]-3-pyridyl]oxymethyl]pyrrolidine-1-carboxylate]
10 | 0.0213 | N#Cc1cc(-c2ccn3nc(NC(=O)C4CC4)cc3c2)c(O[C@@H]2CNCCOC2)cn1 [Example 21, N-[5-[2-cyano-5-[[(6R)-1,4-oxazepan-6-yl]oxy]-4-pyridyl]pyrazolo[1,5-a]pyridin-2-yl]cyclopropanecarboxamide]
11 | 0.0183 | N#Cc1cc(-c2ccn3nc(NC(=O)C4CC4)cc3c2)c(N2CC(CO)C2)cn1 [Example 3, N-[5-[2-cyano-5-[3-(hydroxymethyl)azetidin-1-yl]-4-pyridyl]pyrazolo[1,5-a]pyridin-2-yl]cyclopropanecarboxamide]
12 | 0.00145 | N#Cc1cc(-c2ccn3nc(NC(=O)C4CC4)cc3c2)c(O[C@@H]2CCN(C3CC3)C2)cn1 [Example 25, N-[5-[2-cyano-5-[(3R)-1-cyclopropylpyrrolidin-3-yl]oxy-4-pyridyl]pyrazolo[1,5-a]pyridin-2-yl]cyclopropanecarboxamide]
